Source: paper PMC4475657 (Iranian Journal of Basic Medical Sciences, 2015)

Molecular target: human tau protein 1N/4R isoform (htau34) (Homo sapiens, UniProt P10636)
Assay: ThT fluorescence aggregation assay of purified tau
Format: biochemical

human tau protein 1N/4R isoform (htau34), sequence (P10636 1-412 isoform P10636-7): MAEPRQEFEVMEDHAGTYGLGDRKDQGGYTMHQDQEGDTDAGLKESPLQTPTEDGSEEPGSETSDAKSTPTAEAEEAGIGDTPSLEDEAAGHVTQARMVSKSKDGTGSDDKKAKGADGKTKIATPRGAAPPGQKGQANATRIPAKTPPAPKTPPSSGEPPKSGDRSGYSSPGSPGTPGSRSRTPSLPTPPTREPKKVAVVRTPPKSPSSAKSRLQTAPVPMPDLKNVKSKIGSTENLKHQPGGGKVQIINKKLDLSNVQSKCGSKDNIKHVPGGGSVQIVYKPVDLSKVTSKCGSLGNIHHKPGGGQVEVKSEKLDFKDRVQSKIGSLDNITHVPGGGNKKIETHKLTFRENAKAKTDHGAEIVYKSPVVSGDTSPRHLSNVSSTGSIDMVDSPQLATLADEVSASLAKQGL

IC50: 102 µM
Structure (SMILES): CC(/C=C/C=C(\C)C(=O)O[C@@H]1O[C@H](CO[C@@H]2O[C@H](CO)[C@@H](O)[C@H](O)[C@H]2O)[C@@H](O)[C@H](O)[C@H]1O)=C\C=C\C=C(C)\C=C\C=C(/C)C(=O)O[C@@H]1O[C@H](CO[C@@H]2O[C@H](CO)[C@@H](O)[C@H](O)[C@H]2O)[C@@H](O)[C@H](O)[C@H]1O [crocin]
